Tests used:
PI3Kα = target: T1, PI3Kα (Homo sapiens, UniProt P42336); assay: PI3Kα molecular activity test (ADP-GLO); type: biochemical; conditions: for Selectivity (PI3Kδ IC50/PI3KαIC50): PI3Kδ IC50/PI3Kα IC50; for IC50: recombinant protein, 100 μM ATP, 2 hours at room temperature
T1 construct: purchased Carna Bioscience
Protocol: (§1) Instrument: ELISA Reader Envision™ (PerkinElmer, USA)
(§2) Materials: Human recombinant PI3K and PI3Kδ proteins, purchased from Carna Bioscience; ADP-GLO kit, purchased from Promega.
(§3) Take the PI3Kα Molecular Activity Test as an Example to Describe the Text Method of the PI3K Subtypes
(§4) PI3K-α recombinant protein and substrate ATP were diluted with kinase reaction buffer (50 mM Tris-HCl, pH 7.4, 2.1 mM DTT, 0.05% Tween-20, 10 mM MgCl2). […] The specific reaction system was 2% of DMSO, 0.8 ng/μL PI3K-α, and 100 μM ATP, the positive compound control groups and control wells were set, and there were 3 multiple-wells for each concentration of each sample. After incubating for 2 hours at room temperature, ADP-GLO Reagent and Kinase Detection Reagent were added respectively, and then Envision™ was used to detect the […] readings. The activity rate of the samples were calculated by the sample readings, and the calculation formula was: activity rate=(ODcompound−ODcontrol)/(ODDMSO−ODcontro) ×100%.

PI3Kδ = target: T2, PI3Kδ (Homo sapiens, UniProt O00329); assay: PI3Kδ molecular activity test (ADP-GLO); type: biochemical; conditions: recombinant protein
T2 construct: purchased Carna Bioscience
Protocol: as §1, §2, §3, §4

SW48 (PIK3CA mut) = assay: Tumor cell proliferation, CCK8 method, SW48; type: cell-based; conditions: Homo sapiens; CCK8, SW48; read-out: SW48 (PIK3CA mut) proliferation IC50
Protocol: (§5) The IC50 value was calculated using Graphpad Prism V5.0 software.

MCF7 (PIK3CA mut) = assay: Tumor cell proliferation, CCK8 method, MCF7; type: cell-based, human; conditions: Homo sapiens; CCK8, MCF7; read-out: MCF7 (PIK3CA mut) proliferation IC50
Protocol: as §5

KPL4 (PIK3CA mut) = assay: Tumor cell proliferation, CCK8 method, KPL4; type: cell-based; conditions: CCK8, KPL4; read-out: KPL4 (PIK3CA mut) proliferation IC50
Protocol: as §5

ZR-75-1 (PTEN loss) = assay: Tumor cell proliferation, CCK8 method, ZR-75-1; type: cell-based; conditions: Homo sapiens; CCK8, ZR-75-1
Protocol: as §5

T1 sequence (P42336 whole entry): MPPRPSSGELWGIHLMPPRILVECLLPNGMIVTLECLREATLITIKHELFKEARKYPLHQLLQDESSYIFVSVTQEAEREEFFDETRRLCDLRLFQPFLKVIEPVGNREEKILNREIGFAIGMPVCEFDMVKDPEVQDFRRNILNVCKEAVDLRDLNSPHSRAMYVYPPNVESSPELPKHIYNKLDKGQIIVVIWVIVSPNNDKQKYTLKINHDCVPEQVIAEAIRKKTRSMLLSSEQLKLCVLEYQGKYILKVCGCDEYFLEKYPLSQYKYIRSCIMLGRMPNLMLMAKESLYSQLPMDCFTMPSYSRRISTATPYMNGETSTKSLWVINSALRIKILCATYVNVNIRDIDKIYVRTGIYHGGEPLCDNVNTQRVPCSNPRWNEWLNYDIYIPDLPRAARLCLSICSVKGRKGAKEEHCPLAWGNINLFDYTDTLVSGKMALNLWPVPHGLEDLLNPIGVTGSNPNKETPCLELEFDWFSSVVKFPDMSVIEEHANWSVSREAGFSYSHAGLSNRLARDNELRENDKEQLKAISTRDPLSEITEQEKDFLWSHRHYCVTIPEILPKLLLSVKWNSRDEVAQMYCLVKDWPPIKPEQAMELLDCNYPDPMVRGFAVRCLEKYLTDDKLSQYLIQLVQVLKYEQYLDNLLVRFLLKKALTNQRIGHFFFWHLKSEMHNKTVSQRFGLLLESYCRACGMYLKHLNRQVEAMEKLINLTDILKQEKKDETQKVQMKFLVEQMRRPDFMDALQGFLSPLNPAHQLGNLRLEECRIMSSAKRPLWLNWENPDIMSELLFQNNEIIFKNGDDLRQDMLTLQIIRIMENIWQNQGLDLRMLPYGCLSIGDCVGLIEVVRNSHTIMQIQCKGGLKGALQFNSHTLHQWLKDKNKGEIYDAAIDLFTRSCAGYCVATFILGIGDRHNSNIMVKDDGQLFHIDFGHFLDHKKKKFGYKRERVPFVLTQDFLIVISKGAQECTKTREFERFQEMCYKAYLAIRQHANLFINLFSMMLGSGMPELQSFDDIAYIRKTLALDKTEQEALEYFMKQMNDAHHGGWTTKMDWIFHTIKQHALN
T1 sequence (P27986 whole entry partner): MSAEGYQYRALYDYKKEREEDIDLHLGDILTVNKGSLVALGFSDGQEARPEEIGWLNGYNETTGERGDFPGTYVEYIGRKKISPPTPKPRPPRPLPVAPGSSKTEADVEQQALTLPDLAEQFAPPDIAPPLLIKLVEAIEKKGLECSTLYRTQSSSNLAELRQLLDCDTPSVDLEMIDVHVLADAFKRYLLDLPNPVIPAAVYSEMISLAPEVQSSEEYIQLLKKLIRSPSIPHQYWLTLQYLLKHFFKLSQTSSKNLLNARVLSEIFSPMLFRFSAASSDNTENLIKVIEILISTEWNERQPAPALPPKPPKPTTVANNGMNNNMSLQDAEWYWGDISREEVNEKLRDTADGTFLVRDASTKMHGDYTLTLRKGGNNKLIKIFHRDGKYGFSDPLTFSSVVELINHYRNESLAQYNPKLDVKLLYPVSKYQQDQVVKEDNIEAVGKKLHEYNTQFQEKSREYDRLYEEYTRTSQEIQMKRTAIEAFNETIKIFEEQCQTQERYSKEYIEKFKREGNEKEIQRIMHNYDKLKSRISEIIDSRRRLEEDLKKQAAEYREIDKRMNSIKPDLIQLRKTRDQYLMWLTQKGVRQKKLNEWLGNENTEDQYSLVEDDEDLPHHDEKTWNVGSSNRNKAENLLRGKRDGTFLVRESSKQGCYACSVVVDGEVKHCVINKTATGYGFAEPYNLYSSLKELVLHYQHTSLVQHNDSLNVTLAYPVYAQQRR
T2 sequence (O00329 whole entry): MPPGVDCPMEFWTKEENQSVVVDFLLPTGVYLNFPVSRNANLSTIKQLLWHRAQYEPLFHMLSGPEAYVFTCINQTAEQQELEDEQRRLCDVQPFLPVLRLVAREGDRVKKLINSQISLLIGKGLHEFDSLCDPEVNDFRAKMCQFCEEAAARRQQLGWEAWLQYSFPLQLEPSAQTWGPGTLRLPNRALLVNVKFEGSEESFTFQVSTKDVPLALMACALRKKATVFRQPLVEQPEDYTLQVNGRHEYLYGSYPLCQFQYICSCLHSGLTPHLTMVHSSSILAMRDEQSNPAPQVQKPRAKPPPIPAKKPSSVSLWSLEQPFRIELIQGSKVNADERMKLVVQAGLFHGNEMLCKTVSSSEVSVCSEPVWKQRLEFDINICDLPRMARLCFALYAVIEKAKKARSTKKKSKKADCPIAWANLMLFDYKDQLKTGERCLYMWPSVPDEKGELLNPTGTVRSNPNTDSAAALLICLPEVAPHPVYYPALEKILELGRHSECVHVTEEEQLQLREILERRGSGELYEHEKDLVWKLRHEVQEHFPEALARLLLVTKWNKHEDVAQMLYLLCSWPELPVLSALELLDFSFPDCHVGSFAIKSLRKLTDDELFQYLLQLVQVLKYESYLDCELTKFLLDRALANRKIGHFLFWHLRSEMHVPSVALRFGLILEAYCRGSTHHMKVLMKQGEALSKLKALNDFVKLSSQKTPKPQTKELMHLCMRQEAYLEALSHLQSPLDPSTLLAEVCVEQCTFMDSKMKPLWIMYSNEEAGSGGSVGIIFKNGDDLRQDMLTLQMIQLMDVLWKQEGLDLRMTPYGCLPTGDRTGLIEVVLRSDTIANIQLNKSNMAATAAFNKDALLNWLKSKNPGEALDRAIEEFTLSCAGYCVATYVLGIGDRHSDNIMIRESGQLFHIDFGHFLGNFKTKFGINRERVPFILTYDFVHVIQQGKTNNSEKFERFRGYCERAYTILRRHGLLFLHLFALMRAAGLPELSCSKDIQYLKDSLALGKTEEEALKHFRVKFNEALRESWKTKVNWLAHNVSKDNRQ
T2 sequence (P27986 whole entry partner): as the sequence (P27986 whole entry partner) above

| Structure (SMILES) | Selectivity (PI3Kδ IC50/PI3KαIC50) (PI3Kα) | IC50 (PI3Kα) [µM] | IC50 (PI3Kδ) [µM] | IC50 (SW48 (PIK3CA mut)) [µM] | IC50 (MCF7 (PIK3CA mut)) [µM] | IC50 (KPL4 (PIK3CA mut)) [µM] | IC50 (ZR-75-1 (PTEN loss)) [µM] |
| --- | --- | --- | --- | --- | --- | --- | --- |
| COc1c(O)ccc2c(=O)n(CC(F)F)c(NC(=O)c3cnc(N)nc3)nc12 [7f, 2-amino-N-(3-difluoroethyl-7-hydroxy-8-methoxy-4-oxo-3,4-dihydroquinazolin-2-yl) pyrimidine-5-carboxamide] | I (“I” represents <5 times) | 0.02 to 0.2 | 0.02 to 0.2 | – | – | – | – |
| Cn1c(NC(=O)c2cnc(N)nc2)cc2c3c(ccc2c1=O)OCCOCCOCCOCCO3 [14a′-7] | II (“II” represents 5-10 times) | < 0.02 | 0.02 to 0.2 | – | – | – | – |
| Cn1c(NC(=O)c2cnc(N)nc2)nc2c3c(ccc2c1=O)OCCCCCCCO3 [14a-7] | II (“II” represents 5-10 times) | < 0.02 | 0.02 to 0.2 | 0.2 to 1 | 0.02 to 0.2 | 0.2 to 1 | 0.2 to 1 |
| CCn1c(NC(=O)c2cnc(N)nc2)cc2c3c(ccc2c1=O)OCCO3 [14b′-2] | I (“I” represents <5 times) | < 0.02 | < 0.02 | – | – | – | – |
| CCn1c(NC(=O)c2cncnc2)nc2c(OC)c(OCCCN3CCOCC3)ccc2c1=O [8b-14] | II (“II” represents 5-10 times) | 0.02 to 0.2 | < 0.02 | – | – | – | – |
| COc1c(OCCCN2CCOCC2)ccc2c(=O)n(C)c(NC(=O)c3ccnnc3)nc12 [8a-15] | II (“II” represents 5-10 times) | < 0.02 | 0.02 to 0.2 | – | – | – | – |
| Cn1c(NC(=O)c2cnc(N)nc2)nc2c3c(ccc2c1=O)OCCCCCO3 [14a-5] | II (“II” represents 5-10 times) | < 0.02 | 0.02 to 0.2 | 0.2 to 1 | 0.02 to 0.2 | 0.2 to 1 | 0.2 to 1 |
| COc1c(OCC(=O)N(C)C)ccc2c(=O)n(C)c(NC(=O)c3cnc(N)nc3)nc12 [8a-5] | II (“II” represents 5-10 times) | < 0.02 | 0.02 to 0.2 | – | – | – | – |
| CCn1c(NC(=O)c2cnc(N)nc2)nc2c(OC)c(O)ccc2c1=O [7b, 2-amino-N-(3-ethyl-7-hydroxy-8-methoxy-4-oxo-3 ,4-dihydroquinazolin-2-yl) pyrimidine-5-carboxamide] | II (“II” represents 5-10 times) | < 0.02 | 0.02 to 0.2 | < 0.02 | < 0.02 | 0.02 to 0.2 | 0.02 to 0.2 |
| COc1c(OCCCN2CCOCC2)ccc2c(=O)n(C)c(NC(=O)c3ccc(N)nc3)nc12 [8a-16] | II (“II” represents 5-10 times) | < 0.02 | 0.02 to 0.2 | – | – | – | – |
| COc1c(O)ccc2c(=O)n(CC(F)(F)F)c(NC(=O)c3cnc(N)nc3)nc12 [7e, 2-amino-N-(3-trifluoroethyl-7-hydroxy-8-methoxy-4-oxo-3,4-dihydroquinazolin-2-yl) pyrimidine-5-carboxamide] | I (“I” represents <5 times) | 0.02 to 0.2 | 0.02 to 0.2 | – | – | – | – |
| Cn1c(NC(=O)c2cnc(N)nc2)cc2c3c(ccc2c1=O)OCCOCCO3 [14a′-5] | II (“II” represents 5-10 times) | < 0.02 | 0.02 to 0.2 | – | – | – | – |
| COc1c(OCC(N)=O)ccc2c(=O)n(C(C)C)c(NC(=O)c3cnc(N)nc3)nc12 [8c-2] | I (“I” represents <5 times) | 0.02 to 0.2 | 0.02 to 0.2 | – | – | – | – |
| COc1c(OCCC(N)=O)ccc2c(=O)n(C(C)C)c(NC(=O)c3cnc(N)nc3)nc12 [8c-3] | I (“I” represents <5 times) | 0.02 to 0.2 | 0.02 to 0.2 | – | – | – | – |
| COc1c(OCCCN2CCOCC2)ccc2c(=O)n(C)c(NC(=O)c3cncnc3)cc12 [8a′-8] | III (“III” represents >10 times) | < 0.02 | 0.02 to 0.2 | – | – | – | – |
| COc1c(OCCCN2CCOCC2)ccc2c(=O)n(CC(F)F)c(NC(=O)c3cnc(N)nc3)nc12 [8f-1] | – | – | – | 0.02 to 0.2 | < 0.02 | 0.02 to 0.2 | 0.2 to 1 |

| Structure (SMILES) | Selectivity (PI3Kδ IC50/PI3KαIC50) (PI3Kα) | IC50 (PI3Kα) [µM] | IC50 (PI3Kδ) [µM] | IC50 (SW48 (PIK3CA mut)) [µM] | IC50 (MCF7 (PIK3CA mut)) [µM] | IC50 (KPL4 (PIK3CA mut)) [µM] | IC50 (ZR-75-1 (PTEN loss)) [µM] |
| --- | --- | --- | --- | --- | --- | --- | --- |
| CNC(=O)COc1ccc2c(=O)n(C)c(NC(=O)c3cnc(N)nc3)nc2c1OC [8a-4] | II (“II” represents 5-10 times) | < 0.02 | 0.02 to 0.2 | – | – | – | – |
| Cc1nc(NC(=O)N2CCC[C@H]2C(N)=O)sc1-c1ccnc(C(C)(C)C(F)(F)F)c1 [Alpelisib, reference compound] | – | – | – | 0.02 to 0.2 | < 0.02 | 0.02 to 0.2 | 0.02 to 0.2 |
| COc1c(OCC(N)=O)ccc2c(=O)n(C3CC3)c(NC(=O)c3cnc(N)nc3)nc12 [8d-2] | I (“I” represents <5 times) | 0.02 to 0.2 | 0.02 to 0.2 | – | – | – | – |
| CCn1c(NC(=O)c2cnc(N)nc2)nc2c(OC)c(OCCC(N)=O)ccc2c1=O [8b-3] | III (“III” represents >10 times) | < 0.02 | 0.02 to 0.2 | – | – | – | – |
| Cn1c(NC(=O)c2cnc(N)nc2)cc2c3c(ccc2c1=O)OCCOCCOCCO3 [14a′-6] | II (“II” represents 5-10 times) | < 0.02 | 0.02 to 0.2 | – | – | – | – |
| COc1c(OCCCN2CCOCC2)ccc2c(=O)n(C)c(NC(=O)c3ccnnc3)cc12 [8a′-9] | III (“III” represents >10 times) | < 0.02 | 0.02 to 0.2 | – | – | – | – |
| CCn1c(NC(=O)c2cnc(N)nc2)cc2c(OC)c(OCCC(N)=O)ccc2c1=O [8b′-3] | III (“III” represents >10 times) | < 0.02 | 0.02 to 0.2 | – | – | – | – |
| COc1c(OCC(=O)N2CCOCC2)ccc2c(=O)n(C)c(NC(=O)c3cnc(N)nc3)nc12 [8a-8] | II (“II” represents 5-10 times) | < 0.02 | 0.02 to 0.2 | – | – | – | – |
| Cn1c(NC(=O)c2cnc(N)nc2)cc2c3c(ccc2c1=O)OCCO3 [14a′-2] | II (“II” represents 5-10 times) | < 0.02 | 0.02 to 0.2 | – | – | – | – |
| CCn1c(NC(=O)c2cnc(N)nc2)cc2c3c(ccc2c1=O)OCCCCO3 [14b′-4] | I (“I” represents <5 times) | 0.02 to 0.2 | 0.02 to 0.2 | – | – | – | – |
| COc1c(O)ccc2c(=O)n(C)c(NC(=O)c3cnc(N)nc3)nc12 [7a, 2-Amino-N-(8-methoxy-3-methyl-7-hydroxy-4-oxo-3,4-dihydroquinazolinone-2-yl) pyrimidine-5-carboxamide] | III (“III” represents >10 times) | < 0.02 | 0.02 to 0.2 | – | – | – | – |
| Cn1c(NC(=O)c2cnc(N)nc2)cc2c3c(ccc2c1=O)OCCCCO3 [14a′-4] | II (“II” represents 5-10 times) | < 0.02 | 0.02 to 0.2 | – | – | – | – |
| COc1c(OCCCC(N)=O)ccc2c(=O)n(C)c(NC(=O)c3cnc(N)nc3)nc12 [8a-9] | III (“III” represents >10 times) | < 0.02 | 0.02 to 0.2 | – | – | – | – |
| COc1c(OCCCN2CCOCC2)ccc2c(=O)n(C)c(NC(=O)c3cncnc3)nc12 [8a-14] | II (“II” represents 5-10 times) | < 0.02 | 0.02 to 0.2 | – | – | – | – |
| CCn1c(NC(=O)c2cnc(N)nc2)nc2c(OC(F)F)c(OCCCN3CCOCC3)ccc2c1=O [8g-1] | – | – | – | 0.02 to 0.2 | < 0.02 | 0.02 to 0.2 | 0.2 to 1 |
